Test results: patent US20260183393A1, “IMMUNOSUPPRESSANT-RESISTANT MODIFIED ALLOGENEIC MODIFIED IMMUNE CELLS AND METHODS FOR USE THEREOF” (Beam Therapeutics Inc., priority 2023, published 2026)

System: T cell-driven rejection of allogeneic HLA-I^+ CAR-T cells
Test: HIS mouse-driven allorejection model, 4CAR-T cell persistence
Assay type: in vivo, human immune system (HIS) mice
Details: for rejection of peripheral allogeneic HLA^+ CAR-T cells: RPM 1 mg kg-1 or TAC 10 mg kg-1 daily intraperitoneal for 2 weeks, 1- and 2-weeks post-treatment initiation
Experimental: Female (aged 6-8 weeks) NOD.Cg-Prkdc^scidIL2rg^tm1Wjl/SzJ (NSG) mice (Jackson Laboratory) were maintained in a pathogen-free facility. Briefly, to generate BLT humanized mice, NSG mice were anesthetized and whole-body irradiated (2 Gy), and then implanted with 1 mm^3 fragments of human fetal liver and thymus tissue beneath the murine kidney capsule. Following, 1×10^5 autologous fetal liver-derived CD34^+ hematopoietic stem cells (HSCs) were intravenously injected within 6 hours of transplantation. Beam Therapeutics commercially obtained female NOD-Prkdc^em26Ca52 IL2rg^em26CD22/NjuCrl (NCG) CD34^+ humanized (huNCG) mice from Charles River and female (aged 6-8 weeks) NSG-Tg(IL15)1Sz/SzJ (NSG-IL15tg) mice from Jackson Laboratory. Mice were maintained in a pathogen-free facility at CRADL. Briefly, huCD34-NCG mice were generated from female (aged 4-6 weeks) NCG mice that were myeloablated and then intravenously infused with human umbilical cord blood-derived CD34^+ stem cells from a qualified source. Humanized NK (huNK) mice were generated by supplementing the water of NSG-IL-15tg with Baytril (Bayer) for 1 week followed by whole-body irradiation (2 Gy). 5×10^6 primary human CD56^+ NK cells were then intravenously injected 24 hours later and permitted to engraft. At both facilities, mice were housed in microisolator cages and fed autoclaved food and water. Animal rooms were maintained at 72±2° F., 30-70% relative humidity and were on a 12:12 h light/dark cycle. Human reconstitution was assessed from 12-17 weeks post-transplant in BLT and huNCG mice, and 2-3 weeks post-transplant in huNK mice. […]
For the studies described in FIGS. 16A to 16J, BLT mice were used Cohort #2 (n=12) and Cohort #5 (n=13), and huNCG mice were used in Cohort #1 (n=10), Cohort #3 (n=12) and Cohort #4 (n=10). […] Persistence of 4CAR-T cells was monitored at 1-day post-T cell infusion and weekly thereafter via blood draws from the retro-orbital sinus or submandibular vein. […]

CO[C@H]1C[C@@H]2CC[C@@H](C)[C@@](O)(O2)C(=O)C(=O)N2CCCC[C@H]2C(=O)O[C@H]([C@H](C)C[C@@H]2CC[C@@H](O)[C@H](OC)C2)CC(=O)[C@H](C)/C=C(\C)[C@@H](O)[C@@H](OC)C(=O)[C@H](C)C[C@H](C)/C=C/C=C/C=C/1C [rapamycin, Rapamycin]
rejection of peripheral allogeneic HLA^+ CAR-T cells: significantly mitigated rejection

C=CC[C@@H]1/C=C(\C)C[C@H](C)C[C@H](OC)[C@H]2O[C@@](O)(C(=O)C(=O)N3CCCC[C@H]3C(=O)O[C@H](/C(C)=C/[C@@H]3CC[C@@H](O)[C@H](OC)C3)[C@H](C)[C@@H](O)CC1=O)[C@H](C)C[C@@H]2OC [tacrolimus, Tacrolimus]
rejection of peripheral allogeneic HLA^+ CAR-T cells: significantly mitigated rejection | cumulative allogeneic HLA^+ CAR-T cell persistence (during the treatment window and post-treatment withdrawal, AUC): improved cumulative allogeneic HLA^+ CAR-T cell persistence
